Test results: ChEMBL document CHEMBL3244203, “Absolute configuration of glycerol derivatives. 4. Synthesis and pharmacological activity of chiral 2-alkylaminomethylbenzodioxans, competitive alpha-adrenergic antagonists” (J Med Chem, 1977)

Legend:
[1] = Competitive antagonist activity at alpha-adrenergic receptor in New Zealand rabbit aorta assessed as inhibition of methoxamine-induced contraction incubated for 1 hr; type: tissue-based, Oryctolagus cuniculus
[2] = biological target: Adrenergic receptor alpha; test: Displacement of [3H]dihydroazapetine from alpha-adrenoreceptor in rat vas deferens

| SMILES | pA2 [1] | pKd [2] |
| --- | --- | --- |
| CCN(CC)C[C@H]1COc2ccccc2O1 | 5.6 | 6.21 |
| CCN(CC)C[C@@H]1COc2ccccc2O1 | 5.26 |  |
| c1ccc2c(c1)OC[C@H](CN1CCCCC1)O2 | 7.12 |  |
| c1ccc2c(c1)OC[C@@H](CN1CCCCC1)O2 | 5.86 |  |
| c1ccc2c(c1)OC[C@H](CN1CCN(C[C@H]3COc4ccccc4O3)CC1)O2 | 7.66 | 6.85 |
| c1ccc2c(c1)OC[C@@H](CN1CCN(C[C@@H]3COc4ccccc4O3)CC1)O2 | 6.38 | 6.25 |
| c1ccc2c(c1)OCC(CN1CCN(CC3COc4ccccc4O3)CC1)O2 (stereo not given) | 7.53 |  |
